The test system of series [1] is humoral response to HBsAg (anti-HBsAg antibodies). Kind of series: Humoral response (anti-HBsAg antibody titers by ELISA) in mice immunized i.m. with HBsAg plus adjuvant. Format: in vivo, BALB/c mice. The note with it: for mean anti-HBsAg titer: 3 weeks post-immunization, approx. 18 nmol compound per mouse with alum and 1 μg HBsAg (FIG. 4); for speed of immune response vs alum control: titers at 2 to 3 weeks, p<0.05, approx. 18 nmol per mouse with alum. As to the method: Immunization with HBsAg was conducted on groups of (n=4 or 5) 6- to 8-week old female BALB/c mice (Harlan) as described in, Davis et al., 1996. Each solution contained 1 μg recombinant HBsAg protein (ayw subtype; Genzyme) in a total volume of 50 μl, and 25 μl of each antigen solution was injected into both the left and right tibialis anterior muscles. […] This is the same ratio as used in the commercial hepatitis B vaccines (Davis et al., 1996). […] (Oligonucleotide 1826, previously described in Davis et al., 1996, contains a nuclease-resistant phosphorothioate modified backbone).
The ELISA method was used to evaluate the immune response to a combination of ppGpp and pppGpp and the immune response to ppGpp alone. Kinetics and magnitude of the immune response generated by the nucleotide ppGpp versus an oligonucleotide containing CpG were also determined from the data generated by ELISA. For the isotyping ELISAs the Immunopure Monoclonal Antibody Isotyping Kit I (HRP/ABTS) from Pierce was modified and used.
For measuring humoral response to HBsAg blood was recovered from mice by tail vein bleeds at various times after immunization. The blood was clotted at room temperature for >2 hours, and centrifuged twice at 13 krpm for 10 minutes to separate the serum. Antibodies specific to HBsAg were detected by ELISA, and were quantified relative to a monoclonal antibody against HBsAg (IgG1, 10^10 affinity constant, ad+ay; Genzyme). A solid phase of recombinant HBsAg protein (100 μl of 1 μg/ml per well, overnight at 4° C.) was used to capture anti-HBsAg in the plasma (overnight at 4° C.), which was then detected with HRP-conjugated rabbit anti-mouse IgG+IgM. (1:10,000 in PBS/0.1% Tween/2% BSA; 100 μl per well; Pierce), followed by the sequential addition of 3 3′,5,5′-tetramethylbenzidine solution (50 μl/well, 10 minutes at room temperature; Calbiochem) and 0.25M HCl (50 μl/well). Absorbance was measured at 450 nm within 10 minutes of adding the final reagent. Anti-HB titers are expressed as group means +/−standard error (SE) of individual animals values, which are in turn averages of triplicate assays.
(In general: An ELISA detects its analyte on a solid surface through an enzyme-linked reagent.)

The nature of series [2]: Tolerability / signs of toxicity in immunized mice. The following applies: up to 250 μg ppGpp per mouse i.m. Format: in vivo.

“Also recorded” adds a separate entry of the source.

Turning to `Nc1nc2c(ncn2[C@@H]2O[C@H](COP(=O)(O)OP(=O)(O)OP(=O)(O)O)[C@@H](O)[C@H]2O)c(=O)[nH]1` [GTP, reference compound], the “adjuvant effect on humoral response” value in series [1] (10 μg (18 nmol) GTP with alum and HBsAg (FIG. 4E)) is “modest at best”.

For the compound `Nc1nc2c(ncn2[C@@H]2O[C@H](COP(=O)(O)OP(=O)(O)O)[C@@H](OP(=O)(O)OP(=O)(O)O)[C@H]2O)c(=O)[nH]1` [ppGpp, Guanosine 5′-diphosphate 2′(3′)-diphosphate], the entries for the “effect upon the humoral response” value in series [1] (2 μg ppGpp plus alum (FIG. 3C)), in series [1] (50 μg ppGpp plus alum (FIG. 3E)) and in series [1] (250 μg ppGpp plus alum (FIG. 3F vs 3B)) were “did not have a significant effect”, “did not have a significant effect” and “appeared to suppress the alum-induced adjuvant effect”, respectively. Further, the “mean anti-HBsAg titer” value in series [1] came to 161 ± 42 ng/mL. Besides, the “anti-HBsAg titer, ppGpp group vs alum group” value was “trend was still present” in series [1] (4 weeks post-immunization, ppGpp 10 μg plus alum (FIG. 3B vs 3D)) and “comparable titer levels” in series [1] (6 weeks post-immunization, ppGpp 10 μg plus alum). In addition, the “maximal anti-HBsAg titer level” value in series [1] (10 weeks post-immunization, HBsAg plus alum, ppGpp 10 μg) was 2316 ± 1764 ng/mL. Further, the “time course of humoral response, ppGpp vs unmethylated CpG oligonucleotide (oligo 1826)” value in series [1] (ppGpp 10 μg vs oligo 10 μg, with alum (FIG. 5)) is “did not appear to differ”. Also, the “effect of natural ppGpp vs predicted response of natural CpG oligonucleotide” value in series [1] (predicted response, dotted line of FIG. 5) is “much greater effect”. The “speed of immune response vs alum control” value in series [1] is listed as “more rapid immune response”. Further, the “optimal dosage per mouse” value in series [1] (titration 2, 10, 50, 250 μg ppGpp with alum and 1 μg HBsAg (FIGS. 3C-3F)) was 10 µg. In addition, the “mean ELISA titer of anti-HBsAg antibodies” value in series [1] (two weeks after injection, HBsAg plus alum, ppGpp 10 μg, p=0.04 (FIG. 3B, 3D)) is 83 ± 37 ng/mL. Also, in series [2], the “tolerability / signs of toxicity (ruffling of fur, diarrhea)” value is listed as “well tolerated; also recorded: no signs of toxicity were observed”.

Turning to `Nc1nc2c(ncn2[C@@H]2O[C@H](COP(=O)(O)OP(=O)(O)OP(=O)(O)O)[C@@H](OP(=O)(O)OP(=O)(O)O)[C@H]2O)c(=O)[nH]1` [pppGpp, Guanosine 5′-triphosphate 2′(3′)-diphosphate], in series [1], the “mean anti-HBsAg titer” value was found to be 136 ± 33 ng/mL and the “speed of immune response vs alum control” value is recorded as “more rapid immune response”.

These data come from patent US6562801B1, “PpGpp and pppGpp as immunomodulatory agents” (Board of Regents, The University of Texas System, priority 1999, dated 2003).
